One block for each molecule: values may come before it.
Legend:
[1] = system: Poly(I:C) Na^+ (RNA, polymer, hypoxanthine (inosine) in place of every G of strand 1 (polyinosinic acid)) G/C; assay: UV melting; details: PBS, 0 mM Mg2+, compound concentration not in material, per base
[2] = system: Poly(I:C) HMW (RNA, polymer, hypoxanthine (inosine) in place of every G of strand 1 (polyinosinic acid)) G/C; assay: UV melting; details: PBS, 0 mM Mg2+, compound concentration not in material, per base
[3] = biological target: T1, human RNase; assay: microscale thermophoresis (MST), two-site fit; Kd2 =[…]; type: binding
T1 construct: his-tag-labeled human RNase

[4] = system: Poly(I:C) HMW (RNA, polymer, hypoxanthine (inosine) in place of every G of strand 1 (polyinosinic acid)) G/C; assay: circular dichroism; details: PBS, 0 mM Mg2+, 100 µM compound and 100 µM Poly(I:C)
[5] = biological target: T1, human RNase; assay: microscale thermophoresis (MST); type: binding
[6] = system: Poly(I:C) HMW fluorescein (RNA, polymer, hypoxanthine (inosine) in place of every G of strand 1 (polyinosinic acid)) G/C; assay: microscale thermophoresis; details: PBS-T, PBS-T pH 7.4, 200 nM labelled Poly(I:C)
[7] = system: Poly(I:C) Na^+ (RNA, polymer, hypoxanthine (inosine) in place of every G of strand 1 (polyinosinic acid)) G/C; assay: fluorescence titration of compound emission; details: PBS, <1% DMSO, 5 µM compound, per base pair
[8] = system: Poly(I:C) Na^+ γ (RNA, polymer, hypoxanthine (inosine) in place of every G of strand 1 (polyinosinic acid); gamma-irradiated, possible strand breaks) G/C; assay: fluorescence titration of compound emission; details: PBS, 0 mM Mg2+, <1% DMSO, 5 µM compound, per base pair
[9] = system: Poly(I:C) HMW (RNA, polymer, hypoxanthine (inosine) in place of every G of strand 1 (polyinosinic acid)) G/C; assay: fluorescence titration of compound emission; details: PBS, 0 mM Mg2+, <1% DMSO, 5 µM compound, per base pair
[10] = biological target: T1, human RNase; assay: microscale thermophoresis (MST), two-site fit; Kd2 =[…]; type: binding; remark: listed apart in the source
[11] = derived from two Tm (65 and 65)
[12] = derived from two Tm (66 and 67)
[13] = 595 nm, 1:1 model, conditional constant, per base
[14] = 595 nm, 1:2 model, not a 1:1 Ka
[15] = 540 nm, 1:1 model, conditional constant, per base
[16] = 540 nm, 1:2 model, not a 1:1 Ka

Compound: CN(C)c1ccc(O)c2c1C[C@H]1C[C@H]3[C@H](N(C)C)C(O)=C(C(N)=O)C(=O)[C@@]3(O)C(O)=C1C2=O [minocycline]
melting temperature shift (ΔTm) [1, 11]: 0 °C | melting temperature shift (ΔTm) [2, 12]: -1 °C | Kd [3]: 0.509 ± 0.118 µM | binding [4]: yes

Compound: CN(C)[C@@H]1C(O)=C(C(N)=O)C(=O)[C@@]2(O)C(O)=C3C(=O)c4c(O)cccc4[C@@](C)(O)[C@H]3C[C@@H]12 [tetracycline]
Kd [5]: 24.5 µM

Compound: CN(C)[C@@H]1C(=O)C(C(N)=O)=C(O)[C@@]2(O)C(=O)C3=C(O)c4c(O)cccc4[C@@](C)(O)[C@H]3C[C@@H]12
Kd ([6]; ligand stock 1 mM): 448.1 ± 86.4 µM | Log(K) ([7]; 0 mM Mg2+, 549 nm, 1:1 model, conditional constant, per base): 4.64 ± 0.96 | Log(K) ([7]; 0 mM Mg2+, 549 nm, 1:2 model, not a 1:1 Ka): 11.18 ± 0.99 | Log(K) ([8]; 505 nm, 1:1 model, conditional constant, per base): 4.37 ± 0.56 | Log(K) ([8]; 505 nm, 1:2 model, not a 1:1 Ka): 9.57 ± 0.71 | Log(K) ([9]; 549 nm, 1:1 model, conditional constant, per base): 5.02 ± 1.05 | Log(K) ([9]; 549 nm, 1:2 model, not a 1:1 Ka): 11.70 ± 1.37

Compound: COc1cccc2c1C(=O)c1c(O)c3c(c(O)c1C2=O)C[C@@](O)(C(=O)CO)C[C@@H]3O[C@H]1C[C@H](N)[C@H](O)[C@H](C)O1 [doxorubicin]
melting temperature shift (ΔTm) [1, 11]: 0 °C | melting temperature shift (ΔTm) [2, 12]: -1 °C | Kd [5]: 4.8 ± 2 µM | Kd ([6]; ligand stock 0.25 mM, Kd above tested range): 251 ± 22 µM | Log(K) ([7]; 0 mM Mg2+, 595 nm, 1:1 model, conditional constant, per base): 5.03 ± 0.75 | Log(K) ([7]; 0 mM Mg2+, 595 nm, 1:2 model, not a 1:1 Ka): 10.69 ± 1.14 | Log(K) [8, 13]: 4.50 ± 0.72 | Log(K) [8, 14]: 10.13 ± 1.23 | Log(K) [9, 13]: 5.21 ± 0.75 | Log(K) [9, 14]: 11.23 ± 1.10

melting temperature shift (ΔTm) ([1]; derived from two Tm (64 and 65)): -1 °C | melting temperature shift (ΔTm) ([2]; derived from two Tm (67 and 67)): 0 °C | Kd ([6]; ligand stock 1 mM): 366.2 ± 74.9 µM | Log(K) ([7]; 0 mM Mg2+, 540 nm, 1:2 model, not a 1:1 Ka): 9.85 ± 0.99 | Log(K) ([7]; 10 mM Mg2+ (MgSO4), 537 nm, 1:1 model, conditional constant, per base): 5.39 ± 0.96 | Log(K) [8, 15]: 4.14 ± 0.57 | Log(K) [8, 16]: 10.39 ± 1.8 | Log(K) [9, 15]: 4.62 ± 0.3 | Log(K) [9, 16]: 11.34 ± 1.81
Compound: C[C@H]1c2cccc(O)c2C(O)=C2C(=O)[C@]3(O)C(O)=C(C(N)=O)C(=O)[C@@H](N(C)C)[C@@H]3[C@@H](O)[C@@H]21

Compound: C[C@H]1c2cccc(O)c2C(=O)C2=C(O)[C@]3(O)C(=O)C(C(N)=O)=C(O)[C@@H](N(C)C)[C@@H]3[C@@H](O)[C@@H]21 [doxycycline]
Kd [10]: 0.149 ± 0.052 µM

Source: publication PMC12044458 (ACS Omega, 2025)
